Data from ChEMBL document CHEMBL1201862, “PubChem BioAssay data set” (2004).
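Tested at 5 concentrations; 48 h exposure; 96-well plates; endpoints linearly interpolated, else capped at highest concentration. The concentration for 50% growth inhibition is given as GI50.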 Activity calls are given as the source filed them. No stated cut-off is given here; in the data, active = GI50 up to about 1.1 µM and inactive = higher.

Columns and labels:
Test in all cases: NCI tumour cell line growth inhibition, 48 h
786-0 = tested on: 786-0
A549 = tested on: A549
ACHN = tested on: ACHN
BT-549 = tested on: BT-549
CAKI-1 = tested on: CAKI-1
CCRF-CEM = tested on: CCRF-CEM
COLO 205 = tested on: COLO 205
DU-145 = tested on: DU-145
EKVX = tested on: EKVX
HCC 2998 = tested on: HCC 2998
HCT-116 = tested on: HCT-116
HCT-15 = tested on: HCT-15
HL-60 = tested on: HL-60
HOP-62 = tested on: HOP-62
HOP-92 = tested on: HOP-92
HT-29 = tested on: HT-29
Hs-578T = tested on: Hs-578T
K562 = tested on: K562
KM12 = tested on: KM12
LOX IMVI = tested on: LOX IMVI
M14 = tested on: M14
MCF7 = tested on: MCF7
MDA-MB-231 = tested on: MDA-MB-231
MDA-MB-435 = tested on: MDA-MB-435
MDA-N = tested on: MDA-N
MOLT-4 = tested on: MOLT-4
Malme-3M = tested on: Malme-3M
NCI-H226 = tested on: NCI-H226
NCI-H23 = tested on: NCI-H23
NCI-H460 = tested on: NCI-H460
NCI-H522 = tested on: NCI-H522
NCI/ADR-RES = tested on: NCI/ADR-RES
OVCAR-3 = tested on: OVCAR-3
OVCAR-5 = tested on: OVCAR-5
OVCAR-8 = tested on: OVCAR-8
PC-3 = tested on: PC-3
RPMI-8226 = tested on: RPMI-8226
RXF 393 = tested on: RXF 393
SF-268 = tested on: SF-268
SF-295 = tested on: SF-295
SF-539 = tested on: SF-539
SK-MEL-28 = tested on: SK-MEL-28
SK-MEL-2 = tested on: SK-MEL-2
SK-MEL-5 = tested on: SK-MEL-5
SK-OV-3 = tested on: SK-OV-3
SN12C = tested on: SN12C
SNB-19 = tested on: SNB-19
SNB-75 = tested on: SNB-75
SR = tested on: SR
SW-620 = tested on: SW-620
T47D = tested on: T47D
U-251 = tested on: U-251
UACC-257 = tested on: UACC-257
UACC-62 = tested on: UACC-62
UO-31 = tested on: UO-31
A498 = tested on: A498
IGROV-1 = tested on: IGROV-1
TK-10 = tested on: TK-10

Measured: GI50

CC(=O)OCC(OC(C)=O)C(OC(C)=O)C(OC(C)=O)C(/C=N\Nc1nc2ccccc2c(=O)[nH]1)=N/Nc1nc2ccccc2c(=O)[nH]1 (stereo not given)
inactive: 786-0 > 100 µM | A549 > 100 µM | ACHN > 100 µM | BT-549 > 100 µM | CAKI-1 > 100 µM | CCRF-CEM > 100 µM | COLO 205 > 100 µM | DU-145 > 100 µM | EKVX > 100 µM | HCC 2998 85.5 µM | HCT-116 > 100 µM | HL-60 > 100 µM | HOP-62 > 100 µM | HOP-92 > 100 µM | HT-29 > 100 µM | Hs-578T > 100 µM | K562 > 100 µM | KM12 97.7 µM | LOX IMVI > 100 µM | M14 > 100 µM | MCF7 > 100 µM | MDA-MB-231 > 100 µM | MDA-MB-435 > 100 µM | MDA-N > 100 µM | MOLT-4 > 100 µM | Malme-3M > 100 µM | NCI-H226 > 100 µM | NCI-H23 > 100 µM | NCI-H460 > 100 µM | NCI-H522 > 100 µM | NCI/ADR-RES > 100 µM | OVCAR-3 > 100 µM | OVCAR-5 > 100 µM | OVCAR-8 > 100 µM | PC-3 > 100 µM | RPMI-8226 > 100 µM | RXF 393 > 100 µM | SF-268 > 100 µM | SF-295 > 100 µM | SF-539 18.2 µM | SK-MEL-28 > 100 µM | SK-MEL-2 > 100 µM | SK-MEL-5 > 100 µM | SK-OV-3 > 100 µM | SN12C > 100 µM | SNB-19 > 100 µM | SNB-75 > 100 µM | SR > 100 µM | SW-620 > 100 µM | T47D > 100 µM | U-251 > 100 µM | UACC-257 > 100 µM | UACC-62 > 100 µM | UO-31 > 100 µM
> 100 µM: HCT-15

C[N+]12C=CC=C1C(N1CCCC1)c1scc(-c3ccccc3)c12 (stereo not given)
inactive: 786-0 47.4 µM | A498 38.5 µM | A549 59.8 µM | BT-549 4.25 µM | CAKI-1 > 100 µM | CCRF-CEM 22.4 µM | COLO 205 15.1 µM | DU-145 52.2 µM | EKVX 14.5 µM | HCT-116 32.3 µM | HOP-62 41.7 µM | HT-29 8.65 µM | Hs-578T 9.84 µM | IGROV-1 4.99 µM | K562 6 µM | KM12 8.55 µM | LOX IMVI 37.4 µM | M14 50.2 µM | MCF7 14.8 µM | MDA-MB-231 37.8 µM | MDA-MB-435 36.2 µM | MDA-N 18.8 µM | MOLT-4 19.3 µM | Malme-3M 11.8 µM | NCI-H226 1.6 µM | NCI-H522 3.28 µM | NCI/ADR-RES > 100 µM | OVCAR-3 7.83 µM | OVCAR-5 64.1 µM | OVCAR-8 22.5 µM | PC-3 17.1 µM | RPMI-8226 5.92 µM | RXF 393 17.8 µM | SF-268 15.6 µM | SF-295 44.3 µM | SK-MEL-28 37.2 µM | SK-MEL-2 6.78 µM | SK-MEL-5 11.9 µM | SK-OV-3 > 100 µM | SN12C 5.26 µM | SNB-19 10.6 µM | SNB-75 3.99 µM | SR 12.6 µM | SW-620 93.3 µM | T47D 4.25 µM | U-251 5.92 µM | UACC-62 21 µM | UO-31 > 100 µM

Cc1nc2c(Cl)cc(Cl)cc2c(Cl)c1CCCl
60.5 µM: HCT-15
inactive: 786-0 > 100 µM | A498 72.4 µM | A549 78.7 µM | ACHN > 100 µM | BT-549 51.1 µM | CAKI-1 64 µM | CCRF-CEM 62.8 µM | COLO 205 > 100 µM | DU-145 > 100 µM | EKVX 78.2 µM | HCC 2998 > 100 µM | HCT-116 76 µM | HL-60 55.2 µM | HOP-62 > 100 µM | HT-29 78.7 µM | Hs-578T 51.4 µM | IGROV-1 > 100 µM | K562 80.5 µM | KM12 > 100 µM | LOX IMVI > 100 µM | M14 > 100 µM | MCF7 > 100 µM | MDA-MB-231 69.5 µM | MDA-MB-435 74.6 µM | MDA-N > 100 µM | MOLT-4 55 µM | Malme-3M > 100 µM | NCI-H226 > 100 µM | NCI-H23 > 100 µM | NCI-H460 > 100 µM | NCI-H522 87.1 µM | NCI/ADR-RES 72.3 µM | OVCAR-3 > 100 µM | OVCAR-5 78.3 µM | OVCAR-8 > 100 µM | PC-3 60.5 µM | RPMI-8226 57.5 µM | RXF 393 22.8 µM | SF-268 75.2 µM | SF-295 > 100 µM | SF-539 > 100 µM | SK-MEL-28 > 100 µM | SK-MEL-2 99.5 µM | SK-MEL-5 45.8 µM | SK-OV-3 > 100 µM | SN12C > 100 µM | SNB-19 56.4 µM | SNB-75 42.9 µM | SR 79.1 µM | SW-620 > 100 µM | T47D 52.8 µM | TK-10 32.4 µM | U-251 > 100 µM | UACC-257 > 100 µM | UACC-62 79.6 µM | UO-31 30.1 µM
